Results reported in PubChem BioAssay (NCI).
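Five compound concentrations were applied to cells in 96-well plates for 48 hours; endpoints were derived by simple linear interpolation of the resulting dose-response curve. GI50: concentration for 50% inhibition of growth. TGI marks complete inhibition of growth.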

Experiments:
Assay in all cases: NCI anticancer screen, dose series, 48 h
SF-268 CNS = test system: SF-268 CNS
SF-539 CNS = test system: SF-539 CNS
EKVX NSCLC = test system: EKVX NSCLC
DU-145 prostate = test system: DU-145 prostate
NCI-H460 lung = test system: NCI-H460 lung
A549 NSCLC = test system: A549 NSCLC
MOLT-4 leukemia = test system: MOLT-4 leukemia
NCI-H23 lung = test system: NCI-H23 lung
SW-620 colon = test system: SW-620 colon
K-562 leukemia = test system: K-562 leukemia
HT29 colon = test system: HT29 colon
CCRF-CEM leukemia = test system: CCRF-CEM leukemia
NCI/ADR-RES ovarian = test system: NCI/ADR-RES ovarian
SK-OV-3 ovarian = test system: SK-OV-3 ovarian
OVCAR-4 ovarian = test system: OVCAR-4 ovarian
SNB-75 CNS = test system: SNB-75 CNS
KM12 colon = test system: KM12 colon
HOP-62 NSCLC = test system: HOP-62 NSCLC
UACC-257 melanoma = test system: UACC-257 melanoma
COLO 205 colon = test system: COLO 205 colon
OVCAR-3 ovarian = test system: OVCAR-3 ovarian
TK-10 renal = test system: TK-10 renal
IGROV1 ovarian = test system: IGROV1 ovarian
MCF7 breast = test system: MCF7 breast
UACC-62 melanoma = test system: UACC-62 melanoma
OVCAR-8 ovarian = test system: OVCAR-8 ovarian
NCI-H226 lung = test system: NCI-H226 lung
UO-31 renal = test system: UO-31 renal
HS 578T breast = test system: HS 578T breast
LOX IMVI melanoma = test system: LOX IMVI melanoma
SK-MEL-2 melanoma = test system: SK-MEL-2 melanoma
SK-MEL-5 melanoma = test system: SK-MEL-5 melanoma
MALME-3M melanoma = test system: MALME-3M melanoma
SNB-19 CNS = test system: SNB-19 CNS
SN12C renal = test system: SN12C renal
NCI-H522 lung = test system: NCI-H522 lung
MDA-MB-435 = test system: MDA-MB-435
RPMI-8226 leukemia = test system: RPMI-8226 leukemia
BT-549 breast = test system: BT-549 breast
A498 renal = test system: A498 renal
ACHN renal = test system: ACHN renal
786-0 renal = test system: 786-0 renal
MDA-MB-231 breast = test system: MDA-MB-231 breast
U251 CNS = test system: U251 CNS
PC-3 prostate = test system: PC-3 prostate
OVCAR-5 ovarian = test system: OVCAR-5 ovarian
HCT-116 colon = test system: HCT-116 colon
M14 melanoma = test system: M14 melanoma
SF-295 CNS = test system: SF-295 CNS
T-47D breast = test system: T-47D breast
RXF 393 renal = test system: RXF 393 renal
HL-60(TB) leukemia = test system: HL-60(TB) leukemia
HCT-15 colon = test system: HCT-15 colon
HCC-2998 colon = test system: HCC-2998 colon
SK-MEL-28 melanoma = test system: SK-MEL-28 melanoma
CAKI-1 renal = test system: CAKI-1 renal
SR leukemia = test system: SR leukemia
HOP-92 NSCLC = test system: HOP-92 NSCLC

Question: Which results are given for CS(=O)(=O)Nc1cc(-c2ccc3ncnc(Nc4ccc5c(cnn5Cc5cccc(F)c5)c4)c3c2)cnc1Cl?
Answer: GI50 (SF-268 CNS): 256 nM; TGI (SF-268 CNS): 2070 nM; GI50 (SF-539 CNS): 361 nM; TGI (SF-539 CNS): 1750 nM; GI50 (EKVX NSCLC): 479 nM; TGI (EKVX NSCLC): 4700 nM; GI50 (DU-145 prostate): 756 nM; TGI (DU-145 prostate): 11200 nM; GI50 (NCI-H460 lung): 929 nM; TGI (NCI-H460 lung): 9450 nM; GI50 (A549 NSCLC): 1560 nM; TGI (A549 NSCLC): 5790 nM; GI50 (MOLT-4 leukemia): 318 nM; TGI (MOLT-4 leukemia): 3380 nM; GI50 (NCI-H23 lung): 648 nM; TGI (NCI-H23 lung): 6280 nM; GI50 (SW-620 colon): 676 nM; TGI (SW-620 colon): 6610 nM; GI50 (K-562 leukemia): 913 nM; TGI (K-562 leukemia): > 100000 nM; GI50 (HT29 colon): 597 nM; TGI (HT29 colon): 5420 nM; GI50 (CCRF-CEM leukemia): 301 nM; TGI (CCRF-CEM leukemia): > 100000 nM; GI50 (NCI/ADR-RES ovarian): 5800 nM; TGI (NCI/ADR-RES ovarian): > 78400 nM; GI50 (SK-OV-3 ovarian): 376 nM; TGI (SK-OV-3 ovarian): 2270 nM; GI50 (OVCAR-4 ovarian): 1380 nM; TGI (OVCAR-4 ovarian): 6510 nM; GI50 (SNB-75 CNS): 32.1 nM; TGI (SNB-75 CNS): 457 nM; GI50 (KM12 colon): 1140 nM; TGI (KM12 colon): 4250 nM; GI50 (HOP-62 NSCLC): 452 nM; TGI (HOP-62 NSCLC): 7950 nM; GI50 (UACC-257 melanoma): 812 nM; TGI (UACC-257 melanoma): 4470 nM; GI50 (COLO 205 colon): 759 nM; TGI (COLO 205 colon): 2960 nM; GI50 (OVCAR-3 ovarian): 293 nM; TGI (OVCAR-3 ovarian): 1890 nM; GI50 (TK-10 renal): 277 nM; TGI (TK-10 renal): 2190 nM; GI50 (IGROV1 ovarian): 170 nM; TGI (IGROV1 ovarian): 733 nM; GI50 (MCF7 breast): 201 nM; TGI (MCF7 breast): 1650 nM; GI50 (UACC-62 melanoma): 324 nM; TGI (UACC-62 melanoma): 1690 nM; GI50 (OVCAR-8 ovarian): 1570 nM; TGI (OVCAR-8 ovarian): > 100000 nM; GI50 (NCI-H226 lung): 1110 nM; TGI (NCI-H226 lung): 4840 nM; GI50 (UO-31 renal): 1040 nM; TGI (UO-31 renal): 3960 nM; GI50 (HS 578T breast): 111 nM; TGI (HS 578T breast): 878 nM; GI50 (LOX IMVI melanoma): 400 nM; TGI (LOX IMVI melanoma): 1900 nM; GI50 (SK-MEL-2 melanoma): 275 nM; TGI (SK-MEL-2 melanoma): 1210 nM; GI50 (SK-MEL-5 melanoma): 397 nM; TGI (SK-MEL-5 melanoma): 1440 nM; GI50 (MALME-3M melanoma): 201 nM; TGI (MALME-3M melanoma): 1300 nM; GI50 (SNB-19 CNS): 575 nM; TGI (SNB-19 CNS): 3650 nM; GI50 (SN12C renal): 421 nM; TGI (SN12C renal): 18900 nM; GI50 (NCI-H522 lung): 381 nM; TGI (NCI-H522 lung): 2740 nM; GI50 (MDA-MB-435): 628 nM; TGI (MDA-MB-435): 2300 nM; GI50 (RPMI-8226 leukemia): 396 nM; TGI (RPMI-8226 leukemia): 2050 nM; GI50 (BT-549 breast): 227 nM; TGI (BT-549 breast): 1050 nM; GI50 (A498 renal): 71.7 nM; TGI (A498 renal): 535 nM; GI50 (ACHN renal): 1630 nM; TGI (ACHN renal): 15400 nM; GI50 (786-0 renal): 456 nM; TGI (786-0 renal): 5410 nM; GI50 (MDA-MB-231 breast): 586 nM; TGI (MDA-MB-231 breast): 13200 nM; GI50 (U251 CNS): 419 nM; TGI (U251 CNS): 3170 nM; GI50 (PC-3 prostate): 411 nM; TGI (PC-3 prostate): 2600 nM; GI50 (OVCAR-5 ovarian): 608 nM; TGI (OVCAR-5 ovarian): 7300 nM; GI50 (HCT-116 colon): 480 nM; TGI (HCT-116 colon): 1840 nM; GI50 (M14 melanoma): 745 nM; TGI (M14 melanoma): 2500 nM; GI50 (SF-295 CNS): 811 nM; TGI (SF-295 CNS): 3000 nM; GI50 (T-47D breast): 101 nM; TGI (T-47D breast): 922 nM; GI50 (RXF 393 renal): 294 nM; TGI (RXF 393 renal): 1450 nM; GI50 (HL-60(TB) leukemia): 283 nM; TGI (HL-60(TB) leukemia): 1980 nM; GI50 (HCT-15 colon): 1110 nM; TGI (HCT-15 colon): 8010 nM; GI50 (HCC-2998 colon): 829 nM; TGI (HCC-2998 colon): 2550 nM; GI50 (SK-MEL-28 melanoma): 316 nM; TGI (SK-MEL-28 melanoma): 1860 nM; GI50 (CAKI-1 renal): 359 nM; TGI (CAKI-1 renal): 2480 nM; GI50 (SR leukemia): 507 nM; TGI (SR leukemia): > 100000 nM; GI50 (HOP-92 NSCLC): 56.2 nM; TGI (HOP-92 NSCLC): 460 nM
